In article PMC10176470, “Engaging a Non-catalytic Cysteine Residue Drives Potent and Selective Inhibition of Caspase-6” (Journal of the American Chemical Society, 2023):

Assays:
Type in all cases: cell-based
[1] = target: proteins of HEK293T cells transiently overexpressing caspase-6 (Homo sapiens, UniProt Q9Y617); settings: Probe; protein PSAT1 Q9Y617
[2] = target: proteins of HEK293T cells transiently overexpressing caspase-6 (Homo sapiens, UniProt P04406); settings: exp_ref Probe; protein GAPDH (P04406); analysis C6
[3] = target: proteins of HEK293T cells transiently overexpressing caspase-6 (Homo sapiens, UniProt Q86VP6); settings: exp_ref Probe; protein CAND1 (Q86VP6); analysis C6
[4] = target: proteins of HEK293T cells transiently overexpressing caspase-6 (Homo sapiens, UniProt P53396); settings: exp_ref Probe; protein ACLY (P53396); analysis C6
[5] = target: proteins of HEK293T cells transiently overexpressing caspase-6 (Homo sapiens, UniProt P00492); settings: Probe; protein HPRT1 P00492
[6] = target: proteins of HEK293T cells transiently overexpressing caspase-6 (Homo sapiens, UniProt Q15393); settings: exp_ref Probe; protein SF3B3 (Q15393); analysis C6
[7] = target: proteins of HEK293T cells transiently overexpressing caspase-6 (Homo sapiens, UniProt P22102); settings: exp_ref Probe; protein GART (P22102); analysis C6
[8] = target: proteins of HEK293T cells transiently overexpressing caspase-6 (Homo sapiens, UniProt P08195); settings: protein SLC3A2 (P08195); exp_ref Probe; analysis C6
[9] = target: proteins of HEK293T cells transiently overexpressing caspase-6 (Homo sapiens, UniProt P48643); settings: protein CCT5 (P48643)
[10] = target: proteins of HEK293T cells transiently overexpressing caspase-6 (Homo sapiens, UniProt P35998); settings: exp_ref Probe; protein PSMC2 (P35998); analysis C6
[11] = target: proteins of HEK293T cells transiently overexpressing caspase-6 (Homo sapiens, UniProt P54578); settings: Probe; protein USP14 P54578
[12] = target: proteins of HEK293T cells transiently overexpressing caspase-6 (Homo sapiens, UniProt P07195)
[13] = target: proteins of HEK293T cells transiently overexpressing caspase-6 (Homo sapiens, UniProt P62937); settings: exp_ref Probe; protein PPIA (P62937); analysis C6
[14] = target: proteins of HEK293T cells transiently overexpressing caspase-6 (Homo sapiens, UniProt P55072); settings: exp_ref Probe; protein VCP (P55072); analysis C6
[15] = target: proteins of HEK293T cells transiently overexpressing caspase-6 (Homo sapiens, UniProt Q13148); settings: protein TARDBP (Q13148); exp_ref Probe; analysis C6
[16] = target: T1, proteins of HEK293T cells transiently overexpressing caspase-6 (Homo sapiens, UniProt P28074)
T1 sequence (P28074 60-263): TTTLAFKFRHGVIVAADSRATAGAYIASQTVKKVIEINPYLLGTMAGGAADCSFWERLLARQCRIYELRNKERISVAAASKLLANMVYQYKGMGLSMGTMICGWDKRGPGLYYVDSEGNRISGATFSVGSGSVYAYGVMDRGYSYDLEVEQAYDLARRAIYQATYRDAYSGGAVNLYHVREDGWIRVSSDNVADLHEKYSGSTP

[17] = target: T2, proteins of HEK293T cells transiently overexpressing caspase-6 (Homo sapiens, UniProt O43169); settings: protein CYB5B (O43169)
T2 sequence (O43169 16-150): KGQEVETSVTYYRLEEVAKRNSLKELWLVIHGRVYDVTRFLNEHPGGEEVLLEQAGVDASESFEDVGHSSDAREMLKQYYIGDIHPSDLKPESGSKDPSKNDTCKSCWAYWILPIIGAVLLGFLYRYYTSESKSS

[18] = target: proteins of HEK293T cells transiently overexpressing caspase-6 (Homo sapiens, UniProt Q9BZZ5); settings: exp_ref Probe; protein API5 (Q9BZZ5); analysis C6
[19] = target: proteins of HEK293T cells transiently overexpressing caspase-6 (Homo sapiens, UniProt P14866); settings: exp_ref Probe; protein HNRNPL (P14866); analysis C6
[20] = target: proteins of HEK293T cells transiently overexpressing caspase-6 (Homo sapiens, UniProt P43034); settings: Probe; protein PAFAH1B1 P43034
[21] = target: proteins of HEK293T cells transiently overexpressing caspase-6 (Homo sapiens, UniProt P61221); settings: exp_ref Probe; protein ABCE1 (P61221); analysis C6
[22] = target: proteins of HEK293T cells transiently overexpressing caspase-6 (Homo sapiens, UniProt O75643); settings: exp_ref Probe; protein SNRNP200 (O75643); analysis C6
[23] = target: proteins of HEK293T cells transiently overexpressing caspase-6 (Homo sapiens, UniProt P31930); settings: Probe; protein UQCRC1 P31930
[24] = target: proteins of HEK293T cells transiently overexpressing caspase-6 (Homo sapiens, UniProt P33176); settings: Probe; protein KIF5B P33176
Chain of proteins of HEK293T cells transiently overexpressing caspase-6 (Homo sapiens, UniProt P33176) (P33176 whole entry): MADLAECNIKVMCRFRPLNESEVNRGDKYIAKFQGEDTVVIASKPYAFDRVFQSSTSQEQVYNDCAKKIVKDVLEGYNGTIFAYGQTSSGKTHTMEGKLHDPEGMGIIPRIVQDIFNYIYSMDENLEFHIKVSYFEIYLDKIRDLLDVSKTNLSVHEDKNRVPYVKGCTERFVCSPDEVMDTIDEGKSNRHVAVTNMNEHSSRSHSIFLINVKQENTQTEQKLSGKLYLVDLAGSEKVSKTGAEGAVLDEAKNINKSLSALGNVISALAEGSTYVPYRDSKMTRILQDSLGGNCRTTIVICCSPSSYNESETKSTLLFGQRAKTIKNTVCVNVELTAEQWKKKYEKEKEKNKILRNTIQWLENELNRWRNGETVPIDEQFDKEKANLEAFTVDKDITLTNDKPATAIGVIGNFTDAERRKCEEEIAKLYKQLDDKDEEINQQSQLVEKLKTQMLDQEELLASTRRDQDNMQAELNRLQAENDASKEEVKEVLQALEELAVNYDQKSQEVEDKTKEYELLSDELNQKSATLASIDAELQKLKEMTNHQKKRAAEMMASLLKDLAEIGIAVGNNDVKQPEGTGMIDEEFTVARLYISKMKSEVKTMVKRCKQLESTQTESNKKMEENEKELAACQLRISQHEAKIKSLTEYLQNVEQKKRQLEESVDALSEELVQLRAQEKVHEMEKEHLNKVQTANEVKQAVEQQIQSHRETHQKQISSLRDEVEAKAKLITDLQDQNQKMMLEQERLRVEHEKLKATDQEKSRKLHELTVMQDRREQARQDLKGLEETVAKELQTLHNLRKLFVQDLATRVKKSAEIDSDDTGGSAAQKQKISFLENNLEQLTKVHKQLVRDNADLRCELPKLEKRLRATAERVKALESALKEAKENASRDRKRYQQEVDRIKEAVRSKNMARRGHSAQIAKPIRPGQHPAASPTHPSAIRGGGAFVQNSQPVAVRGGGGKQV

Chain of proteins of HEK293T cells transiently overexpressing caspase-6 (Homo sapiens, UniProt P07195) (P07195 whole entry): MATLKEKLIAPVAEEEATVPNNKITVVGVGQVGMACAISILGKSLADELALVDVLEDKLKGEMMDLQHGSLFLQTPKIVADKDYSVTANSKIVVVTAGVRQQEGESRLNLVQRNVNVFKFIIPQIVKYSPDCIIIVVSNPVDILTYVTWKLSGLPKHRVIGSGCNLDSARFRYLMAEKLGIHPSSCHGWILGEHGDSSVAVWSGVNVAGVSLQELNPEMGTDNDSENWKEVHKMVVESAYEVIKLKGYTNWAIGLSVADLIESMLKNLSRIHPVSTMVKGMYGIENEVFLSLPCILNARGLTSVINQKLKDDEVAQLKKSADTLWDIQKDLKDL
Chain of proteins of HEK293T cells transiently overexpressing caspase-6 (Homo sapiens, UniProt P48643) (P48643 whole entry): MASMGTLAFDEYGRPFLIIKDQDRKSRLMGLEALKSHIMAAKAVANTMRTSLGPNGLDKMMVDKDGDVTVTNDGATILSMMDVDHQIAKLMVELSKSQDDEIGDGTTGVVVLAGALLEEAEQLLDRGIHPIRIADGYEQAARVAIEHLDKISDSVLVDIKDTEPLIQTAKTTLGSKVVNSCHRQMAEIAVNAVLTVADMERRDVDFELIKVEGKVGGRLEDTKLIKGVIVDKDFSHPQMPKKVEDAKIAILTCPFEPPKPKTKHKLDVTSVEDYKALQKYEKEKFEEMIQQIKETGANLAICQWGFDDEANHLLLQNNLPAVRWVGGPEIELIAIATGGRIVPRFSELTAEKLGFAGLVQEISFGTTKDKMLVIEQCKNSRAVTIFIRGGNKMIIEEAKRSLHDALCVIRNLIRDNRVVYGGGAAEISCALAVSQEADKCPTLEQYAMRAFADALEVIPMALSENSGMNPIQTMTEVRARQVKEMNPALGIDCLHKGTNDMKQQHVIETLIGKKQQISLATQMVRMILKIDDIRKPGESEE
Chain of proteins of HEK293T cells transiently overexpressing caspase-6 (Homo sapiens, UniProt P08195) (P08195 102-630): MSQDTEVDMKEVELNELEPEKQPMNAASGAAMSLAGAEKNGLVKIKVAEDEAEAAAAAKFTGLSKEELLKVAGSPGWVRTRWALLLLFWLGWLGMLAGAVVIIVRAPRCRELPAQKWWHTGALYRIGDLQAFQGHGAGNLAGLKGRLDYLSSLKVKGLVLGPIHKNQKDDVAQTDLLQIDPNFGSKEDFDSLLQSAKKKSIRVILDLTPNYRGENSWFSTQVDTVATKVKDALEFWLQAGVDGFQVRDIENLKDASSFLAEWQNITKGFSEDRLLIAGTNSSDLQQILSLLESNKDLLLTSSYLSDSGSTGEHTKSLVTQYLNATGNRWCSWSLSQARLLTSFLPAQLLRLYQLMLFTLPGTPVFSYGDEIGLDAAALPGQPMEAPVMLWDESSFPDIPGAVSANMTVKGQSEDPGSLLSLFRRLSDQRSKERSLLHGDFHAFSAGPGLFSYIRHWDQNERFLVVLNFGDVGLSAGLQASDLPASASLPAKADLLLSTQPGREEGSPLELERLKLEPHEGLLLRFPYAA
Chain of proteins of HEK293T cells transiently overexpressing caspase-6 (Homo sapiens, UniProt Q9BZZ5) (Q9BZZ5 whole entry): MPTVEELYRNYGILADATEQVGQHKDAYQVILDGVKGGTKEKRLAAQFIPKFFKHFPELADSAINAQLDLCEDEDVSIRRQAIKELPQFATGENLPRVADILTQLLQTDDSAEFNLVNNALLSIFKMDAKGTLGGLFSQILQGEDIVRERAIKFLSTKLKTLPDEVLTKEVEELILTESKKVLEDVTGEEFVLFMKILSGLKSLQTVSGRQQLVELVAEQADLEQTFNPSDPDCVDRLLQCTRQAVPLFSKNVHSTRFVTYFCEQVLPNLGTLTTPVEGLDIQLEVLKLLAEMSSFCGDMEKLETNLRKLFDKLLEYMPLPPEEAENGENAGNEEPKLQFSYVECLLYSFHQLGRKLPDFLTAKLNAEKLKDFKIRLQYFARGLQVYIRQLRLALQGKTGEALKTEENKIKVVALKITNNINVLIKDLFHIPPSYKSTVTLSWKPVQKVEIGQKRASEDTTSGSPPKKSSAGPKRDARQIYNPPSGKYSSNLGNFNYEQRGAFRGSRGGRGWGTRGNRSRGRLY
Chain of proteins of HEK293T cells transiently overexpressing caspase-6 (Homo sapiens, UniProt Q13148) (Q13148 whole entry): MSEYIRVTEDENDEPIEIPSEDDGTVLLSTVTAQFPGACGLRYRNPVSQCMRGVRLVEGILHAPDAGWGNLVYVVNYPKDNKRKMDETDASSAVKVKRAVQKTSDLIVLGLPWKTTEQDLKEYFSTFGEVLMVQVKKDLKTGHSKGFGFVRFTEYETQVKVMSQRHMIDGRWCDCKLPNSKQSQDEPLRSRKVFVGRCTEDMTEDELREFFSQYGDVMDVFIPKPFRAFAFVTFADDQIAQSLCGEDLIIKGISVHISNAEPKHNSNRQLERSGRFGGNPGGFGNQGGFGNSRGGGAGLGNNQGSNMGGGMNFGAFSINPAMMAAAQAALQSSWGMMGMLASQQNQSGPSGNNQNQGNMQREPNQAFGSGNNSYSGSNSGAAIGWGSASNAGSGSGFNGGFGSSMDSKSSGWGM
Chain of proteins of HEK293T cells transiently overexpressing caspase-6 (Homo sapiens, UniProt P04406) (P04406 whole entry): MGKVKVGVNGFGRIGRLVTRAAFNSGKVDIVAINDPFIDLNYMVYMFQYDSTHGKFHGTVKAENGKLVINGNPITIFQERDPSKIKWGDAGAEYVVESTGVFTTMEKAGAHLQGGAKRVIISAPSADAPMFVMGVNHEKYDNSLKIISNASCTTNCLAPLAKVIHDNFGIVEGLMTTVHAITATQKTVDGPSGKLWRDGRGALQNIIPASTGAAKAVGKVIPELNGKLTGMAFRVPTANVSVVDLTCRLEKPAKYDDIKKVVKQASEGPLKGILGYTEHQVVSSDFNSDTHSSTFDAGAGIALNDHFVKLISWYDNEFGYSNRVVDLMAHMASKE
Chain of proteins of HEK293T cells transiently overexpressing caspase-6 (Homo sapiens, UniProt P22102) (P22102 whole entry): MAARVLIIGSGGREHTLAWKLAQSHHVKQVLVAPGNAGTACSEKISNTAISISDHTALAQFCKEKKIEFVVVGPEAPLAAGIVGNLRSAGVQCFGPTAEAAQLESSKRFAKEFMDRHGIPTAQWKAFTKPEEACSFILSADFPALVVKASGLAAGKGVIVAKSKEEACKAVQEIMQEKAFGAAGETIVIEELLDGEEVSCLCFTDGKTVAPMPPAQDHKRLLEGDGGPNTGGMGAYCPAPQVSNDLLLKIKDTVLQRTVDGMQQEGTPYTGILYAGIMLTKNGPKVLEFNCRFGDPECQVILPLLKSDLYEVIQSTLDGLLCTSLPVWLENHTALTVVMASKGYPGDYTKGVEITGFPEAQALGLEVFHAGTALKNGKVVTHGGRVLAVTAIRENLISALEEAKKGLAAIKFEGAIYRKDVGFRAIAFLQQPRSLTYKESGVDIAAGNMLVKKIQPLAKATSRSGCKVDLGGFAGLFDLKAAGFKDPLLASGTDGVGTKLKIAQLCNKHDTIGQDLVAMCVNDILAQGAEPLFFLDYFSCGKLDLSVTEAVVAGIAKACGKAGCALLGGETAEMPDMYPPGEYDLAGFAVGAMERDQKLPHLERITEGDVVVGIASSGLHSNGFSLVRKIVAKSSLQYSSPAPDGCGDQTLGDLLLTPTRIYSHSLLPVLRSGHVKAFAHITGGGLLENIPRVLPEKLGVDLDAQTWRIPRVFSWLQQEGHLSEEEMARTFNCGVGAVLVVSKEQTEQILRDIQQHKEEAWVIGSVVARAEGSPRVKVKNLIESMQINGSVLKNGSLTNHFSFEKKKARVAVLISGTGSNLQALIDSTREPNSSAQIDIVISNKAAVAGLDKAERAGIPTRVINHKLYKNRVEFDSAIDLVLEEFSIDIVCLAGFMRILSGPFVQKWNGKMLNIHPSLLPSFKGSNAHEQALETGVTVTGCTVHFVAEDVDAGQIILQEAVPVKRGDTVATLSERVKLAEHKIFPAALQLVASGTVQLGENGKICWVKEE
Chain of proteins of HEK293T cells transiently overexpressing caspase-6 (Homo sapiens, UniProt Q9Y617) (Q9Y617 whole entry): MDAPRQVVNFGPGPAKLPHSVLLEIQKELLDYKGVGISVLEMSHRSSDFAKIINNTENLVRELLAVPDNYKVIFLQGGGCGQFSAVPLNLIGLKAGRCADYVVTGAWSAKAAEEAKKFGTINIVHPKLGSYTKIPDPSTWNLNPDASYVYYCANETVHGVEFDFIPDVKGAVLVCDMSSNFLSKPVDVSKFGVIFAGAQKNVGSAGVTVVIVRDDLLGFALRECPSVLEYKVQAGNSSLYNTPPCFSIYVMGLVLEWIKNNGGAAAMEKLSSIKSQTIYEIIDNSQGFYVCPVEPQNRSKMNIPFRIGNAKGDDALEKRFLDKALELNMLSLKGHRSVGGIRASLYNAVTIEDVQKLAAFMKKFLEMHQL

C#CCOc1ccc([C@@H]2C[C@@H](C(=O)Nc3ccc(OC(F)(F)F)cc3)CN(S(=O)(=O)C=C)C2)cc1 (relative stereo) [13-t]
enrich.exp.med [1]: -1.015 | enrich.exp.med [2]: 0.4718 | enrich.exp.med [3]: 0.5563 | enrich.exp.med [4]: -0.1134 | enrich.exp.med [5]: -1.112 | enrich.exp.med [6]: -0.1408 | enrich.exp.med [7]: 0.2203 | enrich.exp.med [8]: 1.379 | enrich.exp.med ([9]; exp_ref Probe, analysis C6): 0.7352 | enrich.exp.med.lin [9]: 1.665 | enrich.exp.med.log2 [9]: 0.7352 | enrich.exp.med [10]: 0.5412 | enrich.exp.med [11]: -0.5802 | enrich.exp.med ([12]; Probe, protein LDHB P07195): -0.537 | enrich.exp.med.lin ([12]; protein LDHB (P07195)): 0.6892 | enrich.exp.med.log2 ([12]; protein LDHB (P07195)): -0.537 | enrich.exp.med [13]: -0.06908 | enrich.exp.med [14]: -0.3231 | enrich.exp.med [15]: 1.294 | enrich.exp.med ([16]; Probe, protein PSMB5 P28074): -2.323 | enrich.exp.med.lin ([16]; protein PSMB5 (P28074)): 0.1999 | enrich.exp.med.log2 ([16]; protein PSMB5 (P28074)): -2.323 | enrich.exp.med.lin [17]: 2.907 | enrich.exp.med.log2 [17]: 1.54 | enrich.exp.med ([17]; exp_ref Probe, analysis C6): 1.54 | enrich.exp.med [18]: 0.9484 | enrich.exp.med [19]: 0.1244 | enrich.exp.med [20]: -1.169 | enrich.exp.med [21]: -0.002133 | enrich.exp.med [22]: -0.0557 | enrich.exp.med [23]: -0.9693 | enrich.exp.med [24]: -5.169
